Measured values from patent US20260295053A1, “COMPOUNDS FOR DEGRADATION AND INHIBITION OF KRAS (G12D) PROTEIN” (Shenzhen Ionova Life Science Co., Ltd., priority 2023, published 2026).

Each compound was assayed against T1, KRAS (G12D) (Homo sapiens, UniProt P01116, G12D) (assay: KRAS (G12D) cellular degradation assay in AsPC-1 cells). Settings: 24 hours, antibody fluorescence (Odyssey CLX), DC50 half-maximal degradation concentration.
T1 construct: in-cell western with KRAS G12D antibody after 24 h
Format: cell-based
Experimental: ASPC-1 and PK-59 cellular assays ASPC-1 (ATCC cat. CRL-1682) and PK-59 (Nanjing Cobioer, Cat. No. CBP61184) were used in KRAS cellular degradation, pERK inhibition and proliferation assays. The two cell lines were maintained following vendor's instructions. For monitoring KRAS (G12D) cellular degradation and pERK biomarker inhibition, cells were seeded into a 96-well plate with 22,000 and 16,000 cells/well for assays in ASPC-1 and PK-59, respectively. Cells were incubated at 37° C. with 5% CO2 and cell density was monitored until ^~90% confluency was reached. Compounds were serially diluted at a 1:3 ratio and dispensed into each well at final concentrations ranging from […] to 1.5 nM. After incubation for 24 hours, the culture media were removed and the cells were subjected to fixation, permeabilization and blocking (Intercept blocking buffer, Li-cor). For KRAS (G12D) degradation, the cells were treated with primary antibody (KRAS G12D antibody, Cell Signaling Technologies, Cat. No. CST14429) and for β-actin (β-actin mAb, Beyotime, Cat. No. AF-5001), and followed by secondary antibodies, Anti-rabbit IgG (H+L) (DyLight™ 800 4×PEG Conjugate) or IRDye® 680RD Goat anti-Mouse IgG. For pERK inhibition assay, cells were treated with primary antibodies for pERK (Phospho-p44/42 MAPK (Erk1/2) (Thr202/Tyr204) (D13.14.4E) XP® Rabbit mAb, Cell Signaling Technologies, Cat. No. CST-4370) and β-actin (β-actin mAb, Beyotime, Cat. No. AF-5001), and followed by secondary antibodies, Anti-rabbit IgG (H+L) (DyLight™ 800 4×PEG Conjugate) or IRDye® 680RD Goat anti-Mouse IgG. Fluorescence signals were read on Odyssey CLX instrument. For cell proliferation assays, cells were seeded into a 96-well plate at 3,500 and 800 cells/well for assays in ASPC-1 and PK-59, respectively. Cells were incubated at 37° C. with 5% CO2 for overnight. Compounds were serially diluted at a 1:3 ratio and dispensed into each well at final concentrations ranging from […] to 1.5 nM. After incubation for 6 days, cell viability reagent (CellTiter Glo, Promega, Cat. No. G7573) was added to each well and luminescence was recorded on Molecular Devices Spectramax iD3 instrument. IC50, half-maximal inhibitory concentration for pERK inhibition or cell proliferation, and DC50, half-maximal degradation concentration in KRAS (G12D) cellular degradation were determined by fitting the corresponding dose response curves using GraphPad Prism software.
Wherein “A” means the value <10 nM, “B” means 10 nM<the value <100 nM, “C” means 100 nM<the value <1000 nM, and “D” means the value >1000 nM, in which, the value means the value of DC50 or IC50. NT means not tested.

T1 sequence (P01116 1-188 isoform P01116-2 G12D): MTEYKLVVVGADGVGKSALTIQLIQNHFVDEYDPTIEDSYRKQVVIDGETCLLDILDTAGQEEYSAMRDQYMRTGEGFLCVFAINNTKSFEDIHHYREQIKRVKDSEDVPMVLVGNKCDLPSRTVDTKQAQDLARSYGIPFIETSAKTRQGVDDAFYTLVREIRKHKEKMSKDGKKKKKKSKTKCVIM

Row | Compound | DC50
1 | Cc1ncsc1-c1ccc([C@H](CO)NC(=O)[C@@H]2C[C@@H](O)CN2C(=O)[C@H](C(C)C)n2cc(-c3ccc(COc4c(-c5c(C)c(F)cc6[nH]ncc56)c(C5CC5)cc5c(N6CCCNCC6)nc(OC[C@H]6CCCO6)nc45)cc3)nn2)cc1 [Example 213, (2S,4R)-1-((2S)-2-(4-(4-(((6-cyclopropyl-4-(1,4-diazepan-1-yl)-7-(6-fluoro-5-methyl-1H-indazol-4-yl)-2-(((R)-tetrahydrofuran-2-yl)methoxy)quinazolin-8-yl)oxy)methyl)phenyl)-1H-1,2,3-triazol-1-yl)-3-methylbutanoyl)-4-hydroxy-N—((R)-2-hydroxy-1-(4-(4-methylthiazol-5-yl)phenyl)ethyl)pyrrolidine-2-carboxamide] | < 10 nM
2 | CO[C@@H](C)COc1nc(N2C[C@@H]3C[C@H]2CN3)c2cc(C3CC3)c(-c3c(C)c(F)cc4[nH]ncc34)c(OCc3ccc(-c4cn([C@H](C(=O)N5C[C@H](O)C[C@H]5C(=O)N[C@H](C#Cc5cccc6sc(C)nc56)CO)C(C)C)nn4)cc3)c2n1 [Example 117, (2S,4R)-1-((2S)-2-(4-(4-(((4-((1S,4S)-2,5-diazabicyclo[2.2.1]heptan-2-yl)-6-cyclopropyl-7-(6-fluoro-5-methyl-1H-indazol-4-yl)-2-((S)-2-methoxypropoxy)quinazolin-8-yl)oxy)methyl)phenyl)-1H-1,2,3-triazol-1-yl)-3-methylbutanoyl)-4-hydroxy-N—((R)-1-hydroxy-4-(2-methylbenzo[d]thiazol-4-yl)but-3-yn-2-yl)pyrrolidine-2-carboxamide] | 10 to 100 nM
3 | CCn1nccc1-c1ccc([C@@H](NC(=O)[C@@H]2C[C@@H](O)CN2C(=O)[C@H](C(C)C)n2cc(-c3ccc(COc4c(-c5c(C)c(F)cc6[nH]ncc56)c(C5CC5)cc5c(N(C)[C@@H]6CCNC6)nc(O[C@H]6C[C@H](OC)C6)nc45)cc3)nn2)[C@H](C)O)c2c1CC2 [Example 211, (2S,4R)-1-((2S)-2-(4-(4-(((6-cyclopropyl-7-(6-fluoro-5-methyl-1H-indazol-4-yl)-2-((1r,3R)-3-methoxycyclobutoxy)-4-(methyl((R)-pyrrolidin-3-yl)amino)quinazolin-8-yl)oxy)methyl)phenyl)-1H-1,2,3-triazol-1-yl)-3-methylbutanoyl)-N-((1R,2S)-1-(5-(1-ethyl-1H-pyrazol-5-yl)bicyclo[4.2.0]octa-1(6),2,4-trien-2-yl)-2-hydroxypropyl)-4-hydroxypyrrolidine-2-carboxamide] | < 10 nM
4 | CCn1nccc1-c1ccc([C@H](CO)NC(=O)[C@@H]2C[C@@H](O)CN2C(=O)[C@H](C(C)C)n2cc(-c3ccc(COc4c(-c5c(C)c(F)cc6[nH]ncc56)c(C5CC5)cc5c(N6C[C@@H]7C[C@H]6CN7)nc(N6CCC(OC)CC6)nc45)cc3)nn2)cc1 [Example 124, (2S,4R)-1-((2S)-2-(4-(4-(((4-((1S,4S)-2,5-diazabicyclo[2.2.1]heptan-2-yl)-6-cyclopropyl-7-(6-fluoro-5-methyl-1H-indazol-4-yl)-2-(4-methoxypiperidin-1-yl)quinazolin-8-yl)oxy)methyl)phenyl)-1H-1,2,3-triazol-1-yl)-3-methylbutanoyl)-N—((R)-1-(4-(1-ethyl-1H-pyrazol-5-yl)phenyl)-2-hydroxyethyl)-4-hydroxypyrrolidine-2-carboxamide] | < 10 nM
5 | CO[C@@H](C)COc1nc(N(C)[C@H]2CCNC2)c2cc(C3CCC3)c(-c3c(C)c(F)c(F)c4[nH]ncc34)c(OCc3ccc(-c4cn([C@H](C(=O)N5C[C@H](O)C[C@H]5C(=O)N[C@H](c5ccc(-c6scnc6C)cc5)[C@@H](C)O)C(C)C)nn4)cc3)c2n1 [Example 175, (2S,4R)-1-((2S)-2-(4-(4-(((6-cyclobutyl-7-(6,7-difluoro-5-methyl-1H-indazol-4-yl)-2-((S)-2-methoxypropoxy)-4-(methyl((S)-pyrrolidin-3-yl)amino)quinazolin-8-yl)oxy)methyl)phenyl)-1H-1,2,3-triazol-1-yl)-3-methylbutanoyl)-4-hydroxy-N-((1R,2R)-2-hydroxy-1-(4-(4-methylthiazol-5-yl)phenyl)propyl)pyrrolidine-2-carboxamide] | 10 to 100 nM
6 | CCn1nccc1-c1ccc([C@H](CO)NC(=O)[C@@H]2C[C@@H](O)CN2C(=O)[C@H](C(C)C)n2cc(-c3ccc(COc4c(-c5c(C)c(F)cc6[nH]ncc56)c(C5CC5)cc5c(N6C[C@@H]7C[C@H]6CN7)nc(N6CCC(COC)C6)nc45)cc3)nn2)cc1 (stereo partly drawn) [Example 125, (2S,4R)-1-((2S)-2-(4-(4-(((4-((1S,4S)-2,5-diazabicyclo[2.2.1]heptan-2-yl)-6-cyclopropyl-7-(6-fluoro-5-methyl-1H-indazol-4-yl)-2-(3-(methoxymethyl)pyrrolidin-1-yl)quinazolin-8-yl)oxy)methyl)phenyl)-1H-1,2,3-triazol-1-yl)-3-methylbutanoyl)-N—((R)-1-(4-(1-ethyl-1H-pyrazol-5-yl)phenyl)-2-hydroxyethyl)-4-hydroxypyrrolidine-2-carboxamide] | 10 to 100 nM

Other lines, results leading:

Row | DC50 | Compound
7 | 10 to 100 nM | CO[C@@H](C)COc1nc(N2C[C@H]3CN[C@H](C3)C2)c2cc(C3CC3)c(-c3c(C)c(F)cc4[nH]ncc34)c(OCc3ccc(-c4cn([C@H](C(=O)N5C[C@H](O)C[C@H]5C(=O)N[C@@H](CO)c5ccc(-c6scnc6C)cc5)C(C)C)nn4)cc3)c2n1 [Example 223, (2S,4R)-1-((2S)-2-(4-(4-(((4-((1R,5R)-3,6-diazabicyclo[3.2.1]octan-3-yl)-6-cyclopropyl-7-(6-fluoro-5-methyl-1H-indazol-4-yl)-2-((S)-2-methoxypropoxy)quinazolin-8-yl)oxy)methyl)phenyl)-1H-1,2,3-triazol-1-yl)-3-methylbutanoyl)-4-hydroxy-N—((R)-2-hydroxy-1-(4-(4-methylthiazol-5-yl)phenyl)ethyl)pyrrolidine-2-carboxamide]
8 | < 10 nM | CCn1nccc1-c1ccc([C@H](CO)NC(=O)[C@@H]2C[C@@H](O)CN2C(=O)[C@H](C(C)C)n2cc(-c3ccc(COc4c(-c5c(C)c(F)cc6[nH]ncc56)c(C5CC5)cc5c(N6CCCNCC6)nc(OC[C@H]6CCCO6)nc45)cc3)nn2)cc1 [Example 214, (2S,4R)-1-((2S)-2-(4-(4-(((6-cyclopropyl-4-(1,4-diazepan-1-yl)-7-(6-fluoro-5-methyl-1H-indazol-4-yl)-2-(((R)-tetrahydrofuran-2-yl)methoxy)quinazolin-8-yl)oxy)methyl)phenyl)-1H-1,2,3-triazol-1-yl)-3-methylbutanoyl)-N—((R)-1-(4-(1-ethyl-1H-pyrazol-5-yl)phenyl)-2-hydroxyethyl)-4-hydroxypyrrolidine-2-carboxamide]
9 | < 10 nM | CCn1nccc1-c1ccc([C@H](CO)NC(=O)[C@@H]2C[C@@H](O)CN2C(=O)[C@H](C(C)C)n2cc(-c3ccc(COc4c(-c5c(C)c(F)cc6[nH]ncc56)c(C5CC5)cc5c(N6CCCNCC6)nc(OC[C@H](C)OC)nc45)cc3)nn2)c2c1CC2 [Example 224, (2S,4R)-1-((2S)-2-(4-(4-(((6-cyclopropyl-4-(1,4-diazepan-1-yl)-7-(6-fluoro-5-methyl-1H-indazol-4-yl)-2-((S)-2-methoxypropoxy)quinazolin-8-yl)oxy)methyl)phenyl)-1H-1,2,3-triazol-1-yl)-3-methylbutanoyl)-N—((R)-1-(5-(1-ethyl-1H-pyrazol-5-yl)bicyclo[4.2.0]octa-1(6),2,4-trien-2-yl)-2-hydroxyethyl)-4-hydroxypyrrolidine-2-carboxamide]
